Source: patent US20060121083A1 (priority 2003, published 2006)
In brackets after ≈: the same amount, converted by molar mass. Read-outs that look alike come from different tables or passages of the source. Ends that are not written are not given here.

Legend:
[1] = system: Methicillin-resistant S. aureus ATCC 43300; assay: MIC by microbroth dilution method, MRSA; type: cell-based; settings: broth-micro dilution
Method: (§1) Bacterial strains: Methicillin-resistant S. aureus (abbreviated […]) ATCC 43300 was commercially purchased from Oxoid S.p.A., Milan, Italy. Methicillin-resistant S. epidermidis (abbreviated MRSE) is a clinical strain from the Institute of Infectious Diseases and Public Health, University of Ancona, Italy.
(§2) Bacterial strain antibiotic suscepdbilty analysis: The antimicrobial susceptibilities of the bacterial strains were determined by using the microbroth dilution method, according to the procedures outlined by the National Committee for Clinical Laboratory Standards (U.S.A.). The minimal inhibitory concentration (MIC) was taken as the lowest antibiotic concentration at which observable growth was inhibited. Experiments were performed in triplicate.
(§3) Statistical analysis: MIC values are presented as the geometric mean of three separate experiments. […] Significance was accepted when the P value was less than/equal to 0.05.

[2] = system: Methicillin-resistant S. epidermidis clinical strain; assay: MIC by microbroth dilution method, MRSE; type: cell-based; settings: broth-micro dilution
Method: as §1, §2, §3

[3] = system: methicillin-resistant S. aureus (MRSA); type: in vivo; settings: rats, MRSA challenge
Excerpt: (§4) Animals: Adult male Wistar rats, 250-300 gr (I.N.R.C.A. I.R.R.C.S. animal facility, Ancona) were used, with 15 animals per experimental group.
(§5) Mammalian graft infection model: Rats were anesthetized and their hair of the back was shaved and the skin cleansed with 10 percent povidone-iodine solution. One subcutaneous pocket was made on each side of the median line by a 1.5 cm incision. Aseptically, 1 square centimeter sterile albumin-sealed Dacron™ grafts (Albograft™, Sorin Biomedica Cardio, S.p.A., Saluggia VC, Italy) were implanted into the pockets. Prior to implantation grafts were soaked for 20 minutes in sterile antibiotic solutions. The pockets were closed by means of skin clips and saline solution (1 mL) containing methicillin-resistant S. aureus (MRSA) or S. epidermidis (MRSE) at a concentration of 2×10^7 colony-forming units (CFU)/mL was inoculated onto the graft surface by using a tuberculin syringe to create a subcutaneous fluid-filled pocket. The animals were returned to individual cages and thoroughly examined daily. All grafts were explanted at 7 days following implantation.
(§6) Assessment of the infection: The explanted grafts were placed in sterile tubes, washed in sterile saline solution, placed in tubes containing 10 mL of phosphate-buffered saline solution and sonicated for 5 minutes to remove the adherent bacteria from the grafts (Balaban, N. et al, 2003. Kidney Int. 63: 340-345). Quantitation of viable staphylococci was performed by culturing serial dilutions (0.1 mL) of the bacterial suspensions on blood agar plates at 37 degrees centigrade for 48 hours. The organisms were quantitated by counting the number of colony-forming units (CFUs) per plate. The limit of detection for this method was approximately 10 CFU/mL.
as §3

[4] = system: methicillin-resistant S. epidermidis (MRSE); type: in vivo; settings: rats, MRSE challenge
Excerpt: as §4, §5, §6, §3

[5] = system: S. aureus cells; assay: Bacterial growth (CFU) of S. aureus culture grown with peptides; type: cell-based; settings: in-vitro culture grown 2.5 hours with peptide, FIG. 5a
Method: (§7) RNAIII synthesis and bacterial growth: Cultures of S. aureus (20 million cells in a volume of 30 microliters) containing an expression construct for expression of the fusion protein maiii::blaZ (described in Gov, Y. et al., 2001. Peptides. 22: 1609-20 were grown for 2.5 hours with 5 microliters peptide solution or control buffer. A 5 microliter sample was taken from the cultures, diluted in saline, and streaked on LB agar plates to quantitate CFUs. The remainder of the cultures were used to determine RNAIII synthesis (beta-lactamase activity). This was performed by adding a substrate of beta-lactamase (nitrocefin), and determining OD 490 nm/OD 650 nm, as previously described (Gov, Y. et al., 2001. Peptides. 22: 1609-20).

[6] = system: RNAIII synthesis; assay: RNAIII synthesis (beta-lactamase reporter, nitrocefin); type: cell-based, S. aureus; settings: FIG. 5b; at high peptide concentrations mostly attributable to cell death
Method: as §7

[7] = graft pre-soaked with 5 micrograms/mL rifampin alone
[8] = graft pre-soaked with 5 micrograms/mL rifampin alone, 7 days
[9] = graft presoaked in 10 micrograms/mL peptide, explanted at 7 days
[10] = graft presoaked in 20 micrograms/mL peptide, explanted at 7 days
[11] = graft presoaked in 50 micrograms/mL peptide, explanted at 7 days

## CO[C@H]1/C=C/O[C@@]2(C)Oc3c(C)c(O)c4c(O)c(c(/C=N/N5CCN(C)CC5)c(O)c4c3C2=O)NC(=O)/C(C)=C\C=C\[C@H](C)[C@H](O)[C@@H](C)[C@@H](O)[C@@H](C)[C@H](OC(C)=O)[C@@H]1C [rifampin]
[1]; Staphylococcus aureus, read-out: MIC
  MIC: 0.5 µg/mL (≈ 0.608 µM)
[2]; Staphylococcus epidermidis, read-out: MIC
  MIC: 0.5 µg/mL (≈ 0.608 µM)
[3]; [7]
  Reduction in bacterial CFU compared to control: about 50%
[3]; [8]
  Graft bacterial load (quantitative culture): 6.7×10^3±9.1×10^2 CFU/mL
[4]; [7]
  Reduction in numbers of PFUs compared to control: about 50%
[4]; [8]
  Graft bacterial load (quantitative culture): 8.8×10^2±3.0×10^2 CFU/mL

## YSPWTNF (YSPWTNF-NH2) [RIP]
[1]
  MIC: > 128 micrograms/mL
[2]
  MIC: > 128 micrograms/mL
[3]; [9]
  Graft bacterial load (quantitative culture): 4.1×10^4±7.1×10^3 CFU/ml
[3]; [10]
  Graft bacterial load (quantitative culture): 5.9×10^3±1.7×10^3 CFU/ml
[3]; [11]
  Graft bacterial load (quantitative culture): 8.4×10^1±3.6×10^1 CFU/ml
[4]; [9]
  Graft bacterial load (quantitative culture): 6.9×10^3±1.9×10^3 CFU/ml
[4]; [10]
  Graft bacterial load (quantitative culture): 8.5×10^2±2.0×10^2 CFU/ml
[4]; [11]
  Graft bacterial load (quantitative culture): 3.9×10^1±1.6×10^1 CFU/ml
[5]
  Bactericidal activity (CFU counts): virtually inactive
[6]
  Inhibition of RNAIII synthesis: efficiently inhibited RNAIII synthesis
